Experimental data taken from US8957238B2, “Process for preparing malathion for pharmaceutical use” (priority 2005, dated 2015).

Experiment: Storage stability of malathion prepared by the process of the invention, HPLC after storage (Example 7, Table IV)
Format: physicochemical
Description: The malathion prepared by the process of the invention was tested for storage stability. Malathion prepared by the process of the invention was stored under a variety of different temperature and humidity conditions for up to three (3) months. […] The purity of the sample was determined after storage using HPLC.
Table IV presents the analytical data showing storage of two, different batches of malathion after storage under a variety of different conditions.
MeOOSPO, MeOSSPO, malaxon, MeOOSPS, diethyl fumarate, dimethyl malathion, methyl malathion, O,O-methyl, ethyl S-(1,2-dicarboethoxy)ethyl phosphorodithioate, tetraethyl dithiosuccinate, isomalathion, malathion carboxylic acids, mercaptosuccinate and the tetraethyl thiodisuccinate were assayed for by HPLC. The mobile phase was a mixture of water, acetonitrile and methanol (480:370:150) and one drop of 85% phosphoric acid for each […] of mobile phase. Method validation was performed and system reproducibility, linearity, repeatability, intermediate precision, recovery of related compounds and sensitivity were assessed according to standard methology (U.S. Pharmacopeia, 2004, U.S. Pharmacopeial Convention, Inc., 12601 Twinbrook Parkway, Rockville, Md. 20852). If necessary, the mobile phase composition and/or flow rate were adjusted to meet the chromatographic parameters.

Measured: Malathion Purity

CCOC(=O)CC(SP(=S)(OC)OC)C(=O)OCC (stereo not drawn) [malathion prepared by the process of the invention] [[(dimethoxyphosphinothioyl)thio]butanedioic acid diethyl ester]
greater than 98.5 % (w/w): Storage at 5° C. for 3 months | Storage at 25° C., 60% relative humidity for 3 months | Storage at 30° C. and 60% relative humidity for 3 months
